Tested on: patients with SYNGAP1
Test: Four patients with SYNGAP1 in Study ZYN2-CL-025 (BELIEVE)
Format: in vivo, human
Settings: SYNGAP1 encephalopathy patients; across the 26-week treatment period; transdermal
Description: The trial summarized in the examples—a Phase 2 open label clinical trial—assessed the safety and efficacy of transdermal administration of CBD in a heterogeneous group of SYNGAP1 encephalopathy and other rare developmental and epileptic encephalopathies (DEEs), including but not limited to Dravet Syndrome (DS) and Lennox-Gastaut Syndrome (LGS). Some of the most common and debilitating SYNGAP1 encephalopathy seizure types are focal impaired-awareness and convulsive seizures. Patients with SYNGAP1 encephalopathy who experienced these seizure types, such as SYNGAP1 seizures, experienced seizure reductions of up to 73% across the 26-week treatment period. Qualitative assessments by caregivers in the study indicate improved behavioral problems including improved mood, engagement with others, learning ability, alertness, school attendance, as well as cognitive symptoms.
This was a sequential, multi-stage, open-label, multi-national, multiple-center, multiple-dose study to assess the long-term safety and tolerability of ZYN002 (transdermal CBD gel) in child and adolescent epilepsy patients from 3 to 18 years of age having seizures associated with developmental and epileptic encephalopathies (DEE) according to the International League Against Epilepsy (ILEA) classification (Scheffer et al. 2017). […]

For `C=C(C)C1CCC(C)=CC1c1c(O)cc(CCCCC)cc1O` (stereo not shown) [CBD, 2-[3-methyl-6-(1-methylethenyl)-2-cyclohexen-1-yl]-5-pentyl-1,3-benzenediol], the seizure reductions was “up to 73%”.

— US20250339450A1, “TREATMENT OF SYNGAP1 ENCEPHALOPATHY” (Harmony Biosciences Management, Inc., priority 2019, published 2025)
